Test results: US9365597B2, “Mitochondria-targeted inhibitors of cytochrome c peroxidase for protection from apoptosis” (Brock University, priority 2011, dated 2016)

Experiments:
cyt c/TOCL complexes = biological target: T1, cyt c/TOCL complexes (Equus caballus, UniProt P00004); test: Peroxidase activity of cyt c/TOCL complexes, H2O2-induced oxidation of Amplex Red to resorufin; type: biochemical; conditions: cyt c 1 μM, CL/cyt c 25:1, 50 μM Amplex Red, 50 μM H2O2, 20 min
T1 construct: purchased Sigma (St. Louis, Mo.)
Procedure: Conditions: cyt c (1 μM), H2O2 (50 μM), Amplex Red (50 μM). Experiments were performed in 20 mM HEPES buffer (pH 7.4) containing DTPA (100 μM), cyt c was incubated with DOPC/TOCL liposomes (1:1) at a ratio of TOCL:cyt c of 25:1.
Peroxidase activity of cyt c was assessed by oxidation of Amplex Red, etoposide or TLCL (tetra-linoleoyl-cardiolipin). Measurements of Amplex Red oxidation were performed using fluorescence of its oxidation product resorufin. Cyt c (1 μM) was incubated with tetra-oleoyl-cardiolipin (TOCL) containing liposomes (CL/cyt c ratio 25:1). Then 50 μM Amplex Red and 50 μM H2O2 were added, and the incubation proceeded for an additional 20 min. Fluorescence was detected by employing a “Fusion α” universal microplate analyzer and by using an excitation wavelength of 535 nm and an emission wavelength of 590 nm. EPR spectra of etoposide phenoxyl radicals were recorded at 25° C. in gas permeable Teflon tubings (inner diameter, 0.8 mm; thickness, 0.013; Alpha Wire Corp., Elizabeth, N.J.). Volume of samples was 60 μL. The spectra were recorded under the following conditions: 335.3 mT, center field; 2 mT, sweep width; 0.04 mT, field modulation; 10 mW, microwave power; 0.1 s, time constant; 2 min, time scan. The time course of the etoposide radical EPR signal was obtained by repeated scanning of the field (0.15 mT, sweep width; 335.3 mT, center field) corresponding to a part of the EPR signal. Peroxidase activity of mitochondria was determined by the formation of resorufin from Amplex Red. Isolated mouse liver mitochondria (0.6 mg/ml) were incubated in the presence of 100 μM Amplex Red and 2 mM tert-butyl hydroperoxide (tBOOH). After incubation at room temperature for 20 min, fluorescence of resurufin was measured.
Small unilamellar liposomes were prepared from dioleoylphosphatidylcholine (DOPC) and TOCL (1:1 ratio) or DOPC and TLCL (4:1 ratio) by sonication in HEPES buffer (20 mM with 100 μM diethylene triamine pentaacetic acid (DTPA) (pH 7.4) 3×60 sec, relaxation time 2 min, 4° C.).
Peroxidase activity of cyt c was assessed by oxidation of Amplex Red, etoposide or TLCL as described above.

C57BL/6NTac female mice [1] = test: Survival of mice after 9.25 Gy total body irradiation, linear accelerator; type: in vivo, mouse; conditions: for Overall Survival (52 days): p versus irradiated mice / Survival Over First 20 Days: p versus irradiated mice: log-rank
Procedure: C57BL/6NTac female mice were exposed to total body irradiation to a dose of 9.25 Gy using a linear accelerator (n=10-23 mice per group). The mice were injected i.p. with TPP-IOA (5 mg per kg body weight in 100 μl of water containing 25% ethanol) at 1 h or 10 min before irradiation or 10 min, 5 or 24 h after irradiation. Mice exposed to: total body irradiation at the dose of 9.25 Gy only (black circles); to total body irradiation at the dose of 9.25 Gy and injected with TPP-IOA (5 mg per kg body weight) 10 min (grey circles), 5 h (downward-pointing triangles) and 24 h (lower grey squares) thereafter. Mice injected with TPP-IOA (5 mg per kg body weight) 10 min (upper grey squares) and 1 h (upward-pointing triangles) before total body irradiation (9.25 Gy).
C57BL/6NTac female mice were anaesthetized with Nembutal (1 mg per 20 g mouse), irradiated to a total body dose of 9.25 Gy using either a Shepherd Mark 1 Model 68 cesium irradiator at a dose rate of 80 cGy min^−1 (31-35 mice per group) or a Varian TrueBeam linear accelerator (Varian Medical Systems) at 100 monitor units or 100 cGy min^−1 using 6 MV photons with a 40 cm×40 cm field at 100 SSD (10-23 mice per group). Mice were injected intraperitoneally (i.p.) with 5 mg per kg body weight of TPP-IOA in a 100 μl volume of water containing 25% ethanol at 1 h before irradiation, 10 min before irradiation, 10 min after irradiation, 5 h after irradiation and 24 h after irradiation. Other groups were injected i.p. with 2.5 mg per kg body weight of TPP-IOA or 5 mg per kg body weight of TPP-ISA 10 min after irradiation. The mice were followed for the development of haematopoietic syndrome (at which time they were killed).
The log-rank test was used for three analyses: the comparison of overall survival that is defined as the time from the date of radiation to the date of death for all mice under study; the comparison of short-term survival over the first 20 days, that is, the overall survival count at 20 days; and the comparison of conditional survival in mice surviving 20 or more days, that is, the time from the date of radiation to the date of death for all mice who survived 20 days or longer after radiation. All these comparisons were made between each of the treated groups and the radiation-only control group.

C57BL/6NTac female mice [2] = test: Health of non-irradiated mice after i.p. injection; type: in vivo, mouse; conditions: i.p. 5 mg per kg body weight, period of study 52 days
mouse embryonic cells [3] = test: Clonogenic survival of mouse embryonic cells after γ-irradiation; type: cell-based; conditions: 2.5 μM added 30 min post γ-irradiation; single-hit multi-target model; untreated 1.33±0.08
Procedure: Cells were plated in 35-mm dishes with 2 ml culture medium at the appropriate density (between 100 and 1000 cells per dish). TPP-ISA (2.5 μM) or TPP-IOA (2.5 μM) was added to the cell culture 30 min post γ-irradiation. Medium containing TPP-ISA or TPP-IOA was replaced with fresh complete culture medium after 4 hrs. Colonies were fixed and stained with 0.25% crystal violet and 10% formalin (35% v/v) in 80% methanol for 30 min after a 7-day incubation, and those with >50 cells were scored as survivors. The surviving fraction was calculated as the plating efficiency (=number of colonies counted/number of cells seeded×100%) of samples relative to that of control. The data were fitted to a single-hit multi-target model. D0—the dose needed to reduce cell surviving fraction to 37% (1/e)—was estimated from the curves fitted to evaluate the radiomitigative effects of TPP-ISA and TPP-IOA.

C57BL/6NTac female mice [4] = test: Survival of mice after 9.25 Gy total body irradiation, cesium irradiator; type: in vivo, mouse; conditions: for radiomitigative effect (survival): i.p. 5 mg per kg, 10 min after irradiation
[5] = system: caspase-3 activation in S-100 from mouse embryonic cells; test: Cell-free apoptosis system (S100): caspase-3 activation by exogenous cyt c/dATP; type: biochemical; conditions: S100, 1 mM dATP, 1 μM cyt c, 90 min
Procedure: The cytosol extracts (S100) of mouse embryonic cells were obtained as described previously^38 with minor modifications. Briefly, the cells were washed twice in cold phosphate-buffered saline, pH 7.4, and the resulting pellet was resuspended in buffer containing 25 mM HEPES-KOH, pH 7.0, 10 mM KCl, 1.5 mM MgCl2, 1 mM EDTA, 1 mM EGTA, 1 mM DTT, 0.1 mM phenylmethylsulfonyl fluoride, 0.05% digitonin, and 1% protease inhibitor mixture for 2 min at 4° C. Cells were centrifuged at 4° C. for 10 min at 10,000×g. The resulting supernatant was further centrifuged at 4° C. for 50 min at 100,000×g. The supernatant was collected as S-100 and kept at −80° C. until further use. For caspase-3 activation, S100 (5 μg of protein/μl) was incubated with 1 mM dATP and 1 μM cyt c for 90 min at 37° C. The caspase-3 activity was evaluated using Enzchek caspase-3 assay kit as described in the manufacturer's manual (Invitrogen, Carlsbad, Calif.).

mouse embryonic cells [6] = test: Superoxide production in mouse embryonic cells (dihydroethidium, flow cytometry); type: cell-based; conditions: cells with or without radiation treatment (10 Gy); 2.5 and 5 μM, 18 hrs
Procedure: Cells were γ-irradiated at a dose of 10 Gy and then incubated with different concentrations of TPP-IOA or TPP-ISA (2.5 and 5 μM) for 18 hrs. To estimate superoxide generation, cells were incubated with 5 μM of dihydroethidium (DHE) for 30 min at 37° C. Collected cells were re-suspended in phosphate buffered saline (PBS) and fluorescence of 2-hydroxyethidium was analyzed using FACScan supplied with CellQuest software. Data are means±S.D., n=3. *p<0.01 vs. control cells (without any treatment).
A superoxide-meditated oxidation-sensitive fluorogenic dye, dihydroethidium (DHE), was utilized for assessments of superoxide production. Briefly, cells were incubated with 5 μM of DHE for 30 min. Cells were collected by trypsinization and re-suspended in PBS. The fluorescence of 2-hydroxyethidium was measured using a FACScan flow cytometer (BD Biosciences, San Jose, Calif.) supplied with the CellQuest software. Mean fluorescence intensity from 10,000 cells was acquired using a 585/42-nm band-pass filter.

mouse embryonic cells [7] = test: ATP levels in mouse embryonic cells (bioluminescent kit); type: cell-based
Procedure: ATP levels in cells were measured using ATP bioluminescent somatic cell assay kit (St. Louis, Mo.) according to the manufacturer's instructions.

[8] = 2.5 mg/kg body weight i.p., 10 min after 9.25 Gy
[9] = 5 mg/kg body weight i.p., 10 min after 9.25Gy
[10] = 5 mg/kg body weight i.p., 10 min before 9.25Gy
[11] = 5 mg/kg body weight i.p., 1 hr before 9.25Gy
[12] = 5 mg/kg body weight i.p., 5 hr after 9.25Gy
[13] = 5 mg/kg body weight i.p., 24 hr after 9.25Gy

T1 sequence (P00004 2-105 limits assumed, one chain of several): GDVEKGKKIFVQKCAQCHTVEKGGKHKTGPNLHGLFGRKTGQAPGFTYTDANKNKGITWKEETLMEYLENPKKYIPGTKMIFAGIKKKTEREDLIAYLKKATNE

CCCCCCC(C/C=C\CCCCCCCC(=O)OCCC[P+](c1ccccc1)(c1ccccc1)c1ccccc1)n1ccnc1.[Br-] (centres unmarked) [TPP-IOA]
inhibition of peroxidase activity of cyt c/TOCL complexes (Amplex Red oxidation) (cyt c/TOCL complexes): as effective as non-conjugated ISA and IOA | mitigating the mice against irradiation, lower dose (C57BL/6NTac female mice [1]; 2.5 mg per kg body weight, 10 min after irradiation): not effective | Overall Survival (52 days): Median Survival (95% Confidence Interval) (C57BL/6NTac female mice [1]; [8]): 17 (14, —) days | Survival Over First 20 Days: Median Survival (95% Confidence Interval) (C57BL/6NTac female mice [1]; [8]): 17 (14, —) days | Overall Survival (52 days): p versus irradiated mice (C57BL/6NTac female mice [1]; [8]): 0.0525 | Survival Over First 20 Days: p versus irradiated mice (C57BL/6NTac female mice [1]; [8]): 0.0525 | survival when given at later time points after irradiation (C57BL/6NTac female mice [1]; 5 mg per kg, 5 or 24 h after irradiation): significant increase in survival | protection when given before irradiation (C57BL/6NTac female mice [1]; 5 mg per kg, 10 min or 1 h before irradiation): protective | Overall Survival (52 days): Median Survival (95% Confidence Interval) (C57BL/6NTac female mice [1]; [9]): — (—, —) | Survival Over First 20 Days: Median Survival (95% Confidence Interval) (C57BL/6NTac female mice [1]; [9]): — (—, —) | Overall Survival (52 days): p versus irradiated mice (C57BL/6NTac female mice [1]; [9]): <0.0001 | Survival Over First 20 Days: p versus irradiated mice (C57BL/6NTac female mice [1]; [9]): <0.0001 | Overall Survival (52 days): p versus irradiated mice (C57BL/6NTac female mice [1]; [10]): 0.0009 | Survival Over First 20 Days: p versus irradiated mice (C57BL/6NTac female mice [1]; [10]): 0.0009 | Overall Survival (52 days): p versus irradiated mice (C57BL/6NTac female mice [1]; [11]): 0.0230 | Survival Over First 20 Days: p versus irradiated mice (C57BL/6NTac female mice [1]; [11]): 0.0230 | Overall Survival (52 days): p versus irradiated mice (C57BL/6NTac female mice [1]; [12]): 0.0030 | Survival Over First 20 Days: p versus irradiated mice (C57BL/6NTac female mice [1]; [12]): 0.0030 | Overall Survival (52 days): Median Survival (95% Confidence Interval) (C57BL/6NTac female mice [1]; [13]): 18 (13, —) days | Survival Over First 20 Days: Median Survival (95% Confidence Interval) (C57BL/6NTac female mice [1]; [13]): 18 (13, —) days | Overall Survival (52 days): p versus irradiated mice (C57BL/6NTac female mice [1]; [13]): 0.0416 | Survival Over First 20 Days: p versus irradiated mice (C57BL/6NTac female mice [1]; [13]): 0.0416 | adverse side effects in non-irradiated mice (C57BL/6NTac female mice [2]): no adverse side effects were noticed | D0, the dose needed to reduce cell surviving fraction to 37% (1/e) (mouse embryonic cells [3]): 1.71±0.05 | P (two-sided log-rank test), TPP-IOA versus TPP-ISA (C57BL/6NTac female mice [4]; 5 mg per kg 10 min after irradiation): 0.6389 | radiomitigative effect (survival) (C57BL/6NTac female mice [4]): strong radiomitigative effect | caspase activation caused by exogenously added cyt c [5]: completely insensitive | effect on superoxide production (mouse embryonic cells [6]): neither TPP-IOA nor TPP-ISA had any effect | effect on ATP levels (mouse embryonic cells [7]): Neither TPP-IOA nor TPP-ISA had any effect

CCCCCCC(CCCCCCCCCCC(=O)OCCC[P+](c1ccccc1)(c1ccccc1)c1ccccc1)n1ccnc1.[Br-] (centres unmarked) [TPP-ISA]
inhibition of peroxidase activity of cyt c/TOCL complexes (Amplex Red oxidation) (cyt c/TOCL complexes): as effective as non-conjugated ISA and IOA | Overall Survival (52 days): p versus irradiated mice (C57BL/6NTac female mice [1]; [9]): 0.0114 | Survival Over First 20 Days: p versus irradiated mice (C57BL/6NTac female mice [1]; [9]): 0.0114 | adverse side effects in non-irradiated mice (C57BL/6NTac female mice [2]): no adverse side effects were noticed | D0, the dose needed to reduce cell surviving fraction to 37% (1/e) (mouse embryonic cells [3]): 1.67±0.06 | radiomitigative effect (survival) (C57BL/6NTac female mice [4]): strong radiomitigative effect | caspase activation caused by exogenously added cyt c [5]: completely insensitive | effect on superoxide production (mouse embryonic cells [6]): neither TPP-IOA nor TPP-ISA had any effect | effect on ATP levels (mouse embryonic cells [7]): Neither TPP-IOA nor TPP-ISA had any effect
